Tests used:
restenosis = details: patients, reported in literature; cited from earlier work
p150,95 = test: Flowcytometric analysis of p150,95 expression on PMNs; assay type: cell-based, human; details: 20 minutes
Procedure: (§1) 10. Flowcytometric Analysis of the Expression of Adhesion Molecules on PMNs. Treated PMNs were rapidly cooled on ice, washed twice with cold washing buffer (PBS containing 0.1% BSA and 0.1% sodium azide), and then incubated with either monoclonal (m) anti-human (h) LFA-1 (CD11 a), m-anti-h Mac-1 (CD 11b), m-anti-h p150,95 (CD 11 c) or m-anti-h L-selectin (all from PharMingen., San Diego, Calif.), followed by FITC-conjugated m-anti-mouse IgG (American Qualex, San Clement, Calif.). The PMNs were gated by forward and side scattering for analysis by FACScan (Becton Dickinson, Cockeysville, Md.).

PMNs [1] = test: Superoxide generation in PMNs (lucigenin); assay type: cell-based, human; details: 100 nmol LacCer 20 minutes, no inhibitor, PMNs
NADH oxidase = NADH oxidase assay in membrane preparations of Eahy 926 cells; assay type: biochemical, human; details: 5 μM LacCer
[2] = test system: PMN adhesion to unstimulated endothelial cells; test: PMN-endothelial adhesion assay; assay type: cell-based, human; details: PMNs incubated with LacCer, washed
Procedure: 12. PMN-Endothelial Adhesion Assay. PMNs were labeled fluorescently by incubation with 5 μmol/L Calcein-AM (Molecular Probes) in calcium-free PBS for 20 minutes at 37° C., washed and resuspended in Hanks' balanced salt solution (Gibco) containing 0.2% bovine serum albumin (BSA). These PMNs were then treated with LacCer (or vehicle, 0.05% DMSO), washed 3 times with PBS and then plated on the unstimulated ec monolayers, which had been grown to confluence in 24-well plates. The PMNs (600 μL of 2×10^6 /mL/well) then were incubated with the ecs for 30 minutes at 37° C. Non-adherent PMNs were then removed by gentle washing 3 times with PBS. The residual adherent PMNs (and ecs) were then lysed using 4mmol/L Zwittergent Calbiochem, La Jolla, Calif.) and the plates read on a fluorescence plate reader (Millipore) at EX 480 nm/EM 530 nm. The number of adherent PMNs were expressed as number of PMN/mm^2 ec monolayer, based on the mean fluorescent intensity of each PMN, as determined from a standard curve. 13. Additional Methods. LacCer, ceramide and […] (all from Sigma) were prepared as described in examples below, and used as putative agonists for the stimulation of PMN adhesion molecule expression, assayed by FACScan. […]

[3] = test system: neutrophil adhesion to Eahy 926 cells; test: Confocal microscopic study of adhesion of human neutrophils to Eahy 926 endothelial cells; assay type: cell-based; details: LacCer 5 μM, 4 hours
Eahy 926 cells = test: Superoxide production by intact Eahy 926 (lucigenin chemiluminescence); assay type: cell-based, human; details: 5 μM LacCer after 5 minutes, intact Eahy 926 cells
CD11a/CD18 (LFA-1) = test: Flowcytometric analysis of LFA-1 expression on PMNs; assay type: cell-based, human; details: 20 minutes
Procedure: as §1

L-selectin = test: Flowcytometric analysis of L-selectin expression on PMNs; assay type: cell-based, human; details: 20 minutes
Procedure: as §1

NADPH oxidase = details: eahy 926 cell membranes, 5 min, 5 µM
NF-kB = NF-kB DNA binding assay (gel mobility shift) in Eahy 926 cells; assay type: cell-based, human; details: 5 μM LacCer
VCAM-1 = VCAM-1 expression in Eahy 926; assay type: cell-based, human; details: Eahy 926, LacCer
PMNs [4] = test: ROM generation by PMNs (DCFH-DA); assay type: cell-based, human; details: DCFH-DA, 45 minutes
P-selectin = P-selectin expression in Eahy 926; assay type: cell-based, human; details: Eahy 926, LacCer
Mac-1 (CD11b/CD18) = details: pmns, 20 min, 0.1 µM
PMNs [5] = test: [3H] arachidonic acid release from labeled PMNs; assay type: cell-based, human; details: 100 nmol/L LacCer, 30 minutes at 37° C.

For `CC(C)(Sc1cc(C(C)(C)C)c(O)c(C(C)(C)C)c1)Sc1cc(C(C)(C)C)c(O)c(C(C)(C)C)c1` [probucol], which restenosis after angioplasty (restenosis) is on record?
Its restenosis after angioplasty is “reduce restenosis in some patients”.

Which results are given for lactosylceramide [LacCer]?
level of p150,95 (p150,95; LacCer 200 nmol/L): decreased; level of p150,95 (p150,95; LacCer 50-100 nmol/L): increased; superoxide levels compared with controls (PMNs [1]): about two; maximal expression of ICAM-1 as compared to control (ICAM-1; eahy 926 cells, 6 h, 5 µM): 7 fold; stimulation of ICAM-1 expression by GSLs (ICAM-1; intact Eahy 926 cells, GSLs 10 μM, gangliosides up to 50 μM): specifically stimulated; NADH oxidase activity in LacCer stimulated/non stimulated membrane preparations (NADH oxidase): remained unchanged; PMN adhesion to unstimulated ec monolayers [2]: increased; adhesion of neutrophils to the endothelial cell monolayer [3]: markedly stimulated; maximum generation of O2- (Eahy 926 cells): 2.7 nmol/mni/mg protein; level of CD11a/CD18 (LFA-1) (CD11a/CD18 (LFA-1); LacCer higher concentrations): downregulated; level of CD11a/CD18 (LFA-1) (CD11a/CD18 (LFA-1); LacCer lower concentrations): did not change; level of L-selectin (L-selectin; LacCer higher concentrations): downregulated; level of L-selectin (L-selectin; LacCer lower concentrations): did not change; stimulation of NADPH oxidase activity versus non-stimulated cell membrane preparations (NADPH oxidase): about 3 fold; nuclear concentration of NF-kB (NF-kB): time dependent increase; expression of VCAM-1 (VCAM-1): did not stimulate measurable expression; ROM stimulation in PMNs (PMNs [4]): positive, dose-dependent response; expression of P-selectin (P-selectin): did not stimulate measurable expression; maximum stimulation of Mac-1 level compared to control (Mac-1 (CD11b/CD18)): 2.5 fold; [3H] AA release from labeled PMNs (PMNs [5]): increased
